Results on one molecule are retold here after paper PMC5963591, “Bitopic Binding Mode of an M1 Muscarinic Acetylcholine Receptor Agonist Associated with Adverse Clinical Trial Outcomes” (Molecular Pharmacology, 2018).

For one test, the target named is T1, human M1 mAChR (Homo sapiens, UniProt P11229).
T1 sequence (P11229 1-460): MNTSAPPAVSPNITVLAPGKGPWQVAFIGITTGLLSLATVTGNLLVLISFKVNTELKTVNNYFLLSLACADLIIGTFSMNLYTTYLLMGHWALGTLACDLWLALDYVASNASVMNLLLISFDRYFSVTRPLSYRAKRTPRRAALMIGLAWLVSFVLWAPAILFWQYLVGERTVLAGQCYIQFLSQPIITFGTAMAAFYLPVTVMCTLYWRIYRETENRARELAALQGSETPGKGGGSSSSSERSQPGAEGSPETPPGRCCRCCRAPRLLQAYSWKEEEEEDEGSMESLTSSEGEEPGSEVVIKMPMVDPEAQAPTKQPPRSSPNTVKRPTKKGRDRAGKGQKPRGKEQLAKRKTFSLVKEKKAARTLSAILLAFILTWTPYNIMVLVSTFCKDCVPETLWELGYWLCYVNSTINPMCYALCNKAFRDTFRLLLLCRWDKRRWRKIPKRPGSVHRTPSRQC
Put plainly: Kinetic [3H]-NMS binding (dissociation) in membranes. Set-up: expressed in transfected cells; host or cells: CHO Flp-In. Conditions: compound 10 μM plus atropine 10 μM. The method, then:
Reactions were terminated by rapid filtration onto GF/B filter paper (Whatman, Maidstone, UK) and three washes with 3 ml ice-cold 0.9% NaCl using a Brandel harvester (M-24TI; Brandel, Fort Lauderdale, FL). Membrane bound radioactivity was determined by liquid scintillation (Ultima Gold; PerkinElmer) counting.

The target of another test is T2, human mAChR M1 (Homo sapiens, UniProt P11229).
T2 construct: purchased PerkinElmer; host or cells: CHO
Put plainly: [3H]-NMS competition binding, CHO membranes, M1. The method, then:
(§1) For competition binding experiments at M1, M2, M3, M4, and M5 mAChRs, CHO membranes were purchased from PerkinElmer. All experiments were performed in assay buffer of the following composition: 20 mM HEPES, 100 mM NaCl, and 10 mM MgCl2, pH 7.5, and used 10 µg protein/well in a total assay volume of 1 ml using deep well blocks. […] All assay incubations were initiated by the addition of membrane suspensions and deep well blocks were shaken for 5 minutes to ensure complete mixing. Incubation was then carried out for 2 hours at 21°C. Binding reactions were terminated by rapid filtration through GF/A filters (PerkinElmer) presoaked with 0.5% (w/v) polyethylenimine for 1 hour. Filters were then washed three times with 1 ml ice-cold assay buffer.
(§2) Inhibition binding data were curve-fit using GraphPad Prism 6 to derive the potency (IC50) of the test compound. The equilibrium dissociation constant (KI) of the test compound was then calculated with the Cheng–Prusoff equation: KI = IC50/[1 + ([L]/KD)] using the KD value derived separately from saturation binding studies.

Another test has as its target T3, humanized M1 DREADD (Homo sapiens, UniProt P11229, A196G/Y106C).
T3 construct: expressed in transfected cells; host or cells: CHO Flp-In
Nature of the test: IP1 accumulation and ERK1/2 phosphorylation at M1 DREADD, CHO Flp-In cells. In kind it is cell-based.

In the next test the target is T4, human mAChR M4 (Homo sapiens, UniProt P08173).
T4 construct: purchased PerkinElmer; host or cells: CHO
T4 sequence (P08173 whole entry): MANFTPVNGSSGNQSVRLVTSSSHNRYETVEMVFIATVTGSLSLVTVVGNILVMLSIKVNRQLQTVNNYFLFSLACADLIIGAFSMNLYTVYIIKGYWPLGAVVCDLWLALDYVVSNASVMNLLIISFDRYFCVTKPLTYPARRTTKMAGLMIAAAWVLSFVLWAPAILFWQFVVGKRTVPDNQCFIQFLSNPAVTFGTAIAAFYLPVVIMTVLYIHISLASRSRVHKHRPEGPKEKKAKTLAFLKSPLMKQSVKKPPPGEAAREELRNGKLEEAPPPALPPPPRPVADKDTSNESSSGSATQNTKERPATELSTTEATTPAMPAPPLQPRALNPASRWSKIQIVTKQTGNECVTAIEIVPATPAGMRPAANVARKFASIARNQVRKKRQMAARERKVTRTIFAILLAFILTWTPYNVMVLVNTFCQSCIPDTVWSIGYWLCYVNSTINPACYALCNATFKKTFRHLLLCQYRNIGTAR
Put plainly: [3H]-NMS competition binding, CHO membranes, M4. The procedure: as §1, §2

Test [1] addresses T5, M2 mAChR (isolated rat atria) (Rattus norvegicus, UniProt P10980).
T5 construct: from tissue; host or cells: left atria of adult Wistar rats
T5 sequence (P10980 1-466): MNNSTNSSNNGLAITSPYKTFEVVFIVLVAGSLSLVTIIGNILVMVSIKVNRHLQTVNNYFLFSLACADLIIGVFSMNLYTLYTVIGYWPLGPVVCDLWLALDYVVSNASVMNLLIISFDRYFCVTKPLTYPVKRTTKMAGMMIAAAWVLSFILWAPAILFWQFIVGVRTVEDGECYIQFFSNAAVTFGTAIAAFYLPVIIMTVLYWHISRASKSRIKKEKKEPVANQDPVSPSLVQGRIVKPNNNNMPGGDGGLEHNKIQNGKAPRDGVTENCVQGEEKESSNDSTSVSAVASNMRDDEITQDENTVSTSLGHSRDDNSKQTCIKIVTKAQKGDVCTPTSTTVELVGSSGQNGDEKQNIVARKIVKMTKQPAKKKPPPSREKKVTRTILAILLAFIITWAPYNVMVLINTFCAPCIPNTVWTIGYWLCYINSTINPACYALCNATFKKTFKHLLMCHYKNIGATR
Nature of the test: Isolated rat atria, negative inotropic response. Particulars: single experiment. The method, then: Adult Wistar rats were humanely euthanized and the left atria and the ileum were placed in an organ bath containing oxygenated Tyrode solution. Measurement of negative inotropic responses in atria or contraction of ileum was performed as described by [Lambrecht et al. (1989)]. For atrial responses, ligands were administered for 5 minutes at 32°C in McEwen’s buffer (pH 7.4) in a bath volume of 10 ml. […] For rat ileum experiments, ligands were administered for 5 minutes at 32°C in Krebs’ buffer (pH 7.4) in a bath volume of 10 ml. Contraction of ileum as a percentage of methacholine-induced contraction was measured, and antagonistic effects were measured by inhibition of methacholine-induced responses.

The next test addresses T6, human mAChR M5 (Homo sapiens, UniProt P08912).
T6 construct: purchased PerkinElmer; host or cells: CHO
Nature of the test: [3H]-NMS competition binding, CHO membranes, M5. The procedure:
as §1, §2

A further test relates to C57Bl/6J mice. Nature of the test: Contextual fear conditioning, scopolamine-induced deficit. It is filed as in vivo, mouse. Particulars: escalating i.p. doses with scopolamine […]. The procedure:
C57Bl/6J male mice (aged 8–12 weeks) were acclimatized to the behavioral testing suite at least 2 hours prior to the test. […] Mice were placed in the conditioning chamber (ANY-maze Fear Conditioning System; Stoelting, Dublin, Ireland); after a 2-minute adaptation period, they received three tone/foot shock pairings where the foot shock (unconditioned stimulus; 2 seconds; 0.4 mA) always co-terminated with a tone (conditioned stimulus; 2.8 kH; 85 dB; 30 seconds). The conditioned stimulus–unconditioned stimulus pairings were separated by 1-minute intervals. After the mice completed training, they remained in the conditioning chamber for 1 minute and were then returned to their home cages. The next day, the mice were placed back in the conditioning chamber, and time spent immobile was recorded for 3 minutes to assess context-dependent learning. Data were analyzed using ANY-maze software (Stoelting).

The test system of another test is rodents. Details: method as in Budzik et al., 2010. Particulars: ref Budzik et al., 2010; cited from earlier work.
The target in another test is T7, human mAChR M2 (Homo sapiens, UniProt P08172).
T7 construct: purchased PerkinElmer; host or cells: CHO
T7 sequence (P08172 whole entry): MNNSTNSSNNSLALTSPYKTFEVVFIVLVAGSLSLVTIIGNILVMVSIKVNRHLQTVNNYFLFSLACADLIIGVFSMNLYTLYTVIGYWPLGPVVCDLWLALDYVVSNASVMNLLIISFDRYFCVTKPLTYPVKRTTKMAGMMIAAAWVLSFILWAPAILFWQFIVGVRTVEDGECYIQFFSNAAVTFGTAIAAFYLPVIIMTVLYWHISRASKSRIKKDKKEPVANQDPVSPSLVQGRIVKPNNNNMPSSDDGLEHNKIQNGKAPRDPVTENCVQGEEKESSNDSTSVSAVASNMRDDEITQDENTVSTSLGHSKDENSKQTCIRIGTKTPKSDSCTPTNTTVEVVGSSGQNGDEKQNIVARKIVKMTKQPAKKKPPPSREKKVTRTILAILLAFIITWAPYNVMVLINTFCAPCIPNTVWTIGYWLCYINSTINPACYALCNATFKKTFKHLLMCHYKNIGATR
Nature of the test: [3H]-NMS competition binding, CHO membranes, M2. The method, then: as §1, §2

Molecules are shown by their SMILES.

T3 sequence (P11229 whole entry Y106C/A196G): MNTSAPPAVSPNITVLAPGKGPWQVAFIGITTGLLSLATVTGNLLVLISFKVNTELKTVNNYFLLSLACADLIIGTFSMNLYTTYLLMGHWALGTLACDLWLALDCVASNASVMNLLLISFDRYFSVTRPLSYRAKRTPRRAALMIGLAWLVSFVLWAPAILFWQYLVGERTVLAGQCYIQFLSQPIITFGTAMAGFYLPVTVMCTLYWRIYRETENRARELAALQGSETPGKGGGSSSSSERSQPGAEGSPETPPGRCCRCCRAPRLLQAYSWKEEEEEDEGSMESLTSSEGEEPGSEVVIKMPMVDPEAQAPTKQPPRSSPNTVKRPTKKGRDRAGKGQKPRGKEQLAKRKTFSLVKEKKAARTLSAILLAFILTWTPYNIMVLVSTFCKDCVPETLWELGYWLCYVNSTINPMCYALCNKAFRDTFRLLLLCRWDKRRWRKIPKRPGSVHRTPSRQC
T6 sequence (P08912 whole entry): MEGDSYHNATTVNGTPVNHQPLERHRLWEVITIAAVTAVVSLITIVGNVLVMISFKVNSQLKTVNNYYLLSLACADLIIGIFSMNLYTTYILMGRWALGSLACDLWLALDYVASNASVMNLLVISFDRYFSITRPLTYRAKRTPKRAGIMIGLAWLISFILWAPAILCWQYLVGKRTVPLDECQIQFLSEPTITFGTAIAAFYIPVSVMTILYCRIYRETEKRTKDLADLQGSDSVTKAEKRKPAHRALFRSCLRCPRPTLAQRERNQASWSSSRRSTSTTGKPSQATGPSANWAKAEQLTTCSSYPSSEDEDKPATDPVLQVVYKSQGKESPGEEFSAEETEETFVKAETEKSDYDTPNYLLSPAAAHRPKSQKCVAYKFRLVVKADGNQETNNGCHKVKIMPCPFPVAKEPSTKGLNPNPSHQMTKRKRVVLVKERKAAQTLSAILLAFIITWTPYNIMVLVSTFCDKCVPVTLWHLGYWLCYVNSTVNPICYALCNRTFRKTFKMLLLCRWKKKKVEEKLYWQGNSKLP

A word on the Ki: it is a dissociation constant, usually derived from enzyme kinetics or from competition with a known ligand. By IC50 is commonly meant the concentration that inhibits the measured activity by half. With `Cc1cc(F)c2[nH]c(=O)n(C3CCN(C4CCOCC4)CC3)c2c1` [GSK1034702, 7-fluoro-5-methyl-3-[1-(oxan-4-yl)piperidin-4-yl]-1H-benzimidazol-2-one], the “effect on the [^3H]-NMS dissociation rate” value on human M1 mAChR is recorded as “no effect”. Further, the Ki was 1 µM at human mAChR M1, 2 µM at human mAChR M4, 6.31 µM at human mAChR M5 and 3.98 µM on human mAChR M2. For the same molecule, the “potency and efficacy at the M1 DREADD compared with the wild-type receptor” value at humanized M1 DREADD is “comparable potency and efficacy”. The IC50 in [1] (methacholine 1 μM, read-out: IC50, inhibition of methacholine-induced responses in rat atria) came to 8 µM. Moreover, the “maximal negative inotropic response in rat atria” value in test [1] (relative to methacholine) is recorded as “maximal response equivalent to that of methacholine”. Also, the “potency, negative inotropic response in rat atria” value in test [1] is given as “micromolar potency”. In the test on C57Bl/6J mice, the “shape of the dose response on learning and memory” value is reported as “bell shaped”. Moreover, the “effect on scopolamine-induced amnesia” value in the test with rodents is reported as “reversed scopolamine-induced amnesia”.
